Reference: patent publication US20070087378A1, “Polynucleotide and polypeptide fat metabolism regulators and uses thereof” (priority 2002, published 2007)
Entries after “also recorded” stand apart in the source; their conditions may differ.

Assays:
C. elegans = assay: Growth rate, brood-size, pharyngeal pumping, dauer formation, dauer recovery and lifespan assays; details: concentrations between 0.001 μg/ml and 25 μg/ml
wild-type nematodes = assay: Nile Red fat staining of wild-type nematodes (feeding RNAi screen; compound treatment); format: in vivo, C. elegans
[1] = test system: daf-2(e1370) mutant nematodes; set-up: species or system C. elegans; details: in vivo
[2] = test system: tub-1(nr2004) mutant nematodes; set-up: species or system C. elegans; details: in vivo
[3] = test system: tph-1(mg280) mutant nematodes; assay: Nile Red fat staining of tph-1(mg280) nematodes (RNAi epistasis analysis; compound treatment); format: in vivo, C. elegans; details: adult tph-1(mg280) nematodes, 500 μM
nematode progeny = assay: Continuous AICAR treatment: growth and development of nematode progeny; details: relative to untreated control progeny
Method: Adult wild-type nematodes, daf-2 (e1370), tph-1(mg280), and tub-1(nr2004) mutant nematodes were treated with 500 μM AICAR, and their fat content was detected using Nile Red as described above. […] To determine whether the effects of AICAR were reversible, AICAR-treated nematodes were then moved to culture plates without AICAR. […] The effect of continuous AICAR treatment was tested by seeding AICAR plates with five hermaphrodites, and then monitoring the effect of AICAR on the growth and development of nematode progeny relative to untreated control progeny.

lpo-1 mutant nematodes = test system: lpo-1 mutant nematodes; set-up: species or system C. elegans; details: in vivo

CCN(CC)c1ccc2nc3c4ccccc4c(=O)cc-3oc2c1 [Nile Red, 9-diethylamino-5H-benzo[α]phenoxazine-5-one]
adverse effects on growth rate, brood-size, pharyngeal pumping, dauer formation, dauer recovery, or lifespan (C. elegans): No adverse effects

NC(=O)c1ncn([C@@H]2O[C@H](CO)[C@@H](O)[C@H]2O)c1N [AICAR, 5-aminoimidazole-4-carbozamide ribonucleoside]
time at which reduction in fat content was detectable (wild-type nematodes; 500 μM, wild-type and daf-2, tph-1, tub-1 mutant nematodes): twenty-four
fat content relative to untreated control nematodes (wild-type nematodes; adult wild-type nematodes, 500 μM): progressive reduction in fat content
reversibility of fat reduction (wild-type nematodes; treated nematodes moved to culture plates without AICAR): regained their fat content
fat content relative to untreated control nematodes [1]: progressive reduction in fat content
fat content relative to untreated control nematodes [2]: progressive reduction in fat content
fat content relative to untreated control nematodes [3]: progressive reduction in fat content
effect on growth and development of progeny (nematode progeny): dramatic retardation of larval growth accompanied by depleted fat stores

CC[C@H](C)C(=O)O[C@H]1C[C@@H](C)C=C2C=C[C@H](C)[C@H](CC[C@@H]3C[C@@H](O)CC(=O)O3)[C@H]21 [mevinolin]
fat content / fat accumulation by Nile Red staining (lpo-1 mutant nematodes): reduced; also recorded: decreased fat accumulation
